Test results reported in patent US20080280991A1, “SUBSTITUTED NAPHTHALENES” (AUSPEX PHARMACEUTICALS, INC., priority 2007, published 2008).
Values belong to the compound of their own block, whether it stands above or below them.

Assays:
[1] = In vitro liver microsomal stability assay; assay type: in vitro ADME; conditions: 1 mg per mL liver microsome protein, NADPH-generating system, 5 microgram per mL compound, 37° C., 0-60 min, LC/MS/MS
Description: Liver microsomal stability assays are conducted at 1 mg per mL liver microsome protein with an NADPH-generating system in 2% NaHCO3 (2.2 mM NADPH, 25.6 mM glucose 6-phosphate, 6 units per mL glucose 6-phosphate dehydrogenase and 3.3 mM MgCl2). Test compounds are prepared as solutions in 20% acetonitrile-water and added to the assay mixture (final assay concentration 5 microgram per mL) and incubated at 37° C. Final concentration of acetonitrile in the assay should be <1%. Aliquots ([…]) are taken out at times 0, 15, 30, 45, and 60 min, and diluted with ice cold acetonitrile (200 μL) to stop the reactions. Samples are centrifuged at 12,000 RPM for 10 min to precipitate proteins. Supernatants are transferred to microcentrifuge tubes and stored for LC/MS/MS analysis of the degradation half-life of the test compounds. […] For example, the degradation half-life of Example 9 was increased by 20% as compared to non-isotopically enriched agomelatine.

melatonin receptor = conditions: relative to agomelatine; cited from earlier work
[2] = in vivo; cited from earlier work

increase in the degradation half-life as compared to the non-isotopically enriched drug (agomelatine) [1]: 20%
Structure (SMILES): [2H]C([2H])([2H])Oc1ccc2cccc(C([2H])([2H])C([2H])([2H])NC(=O)C([2H])([2H])[2H])c2c1 [Example 9, d10-N-[2-(7-Methoxy-naphthalen-1-yl)-ethyl]-acetamide]

Structure (SMILES): CC(=O)NCCc1cccc2ccc(O)cc12 [S 21517]
fold less potency for the melatonin receptor than the parent compound (agomelatine) (melatonin receptor): 100 fold

Structure (SMILES): COc1ccc2cccc(CCNC(C)=O)c2c1 [agomelatine, N-[2-(7-Methoxy-naphthalen-1-yl)-ethyl]-acetamide]
terminal elimination half-life [2]: 2.3 h
